Test results taken from ChEMBL document CHEMBL3881530, “Compounds and methods for inhibiting NHE-mediated antiport in the treatment of disorders associated with fluid retention or salt overload and gastrointestinal tract disorders” (2013).
Values belong to the molecule of their own block, whether it stands above or below them. Activity calls are given as the source filed them. No cut-off for these calls is given here.

How the values were obtained:
[1] = AUC in Sprague-Dawley rat at 1.3 mg/kg administered via oral gavage measured up to 4 hrs by LC/MS/MS analysis; format: ADME, organism-based; design: dose 1.3 mg/kg, time < 4 hr, route oral; conditions: in vivo
[2] = Cmax in Sprague-Dawley rat at 1.3 mg/kg administered via oral gavage measured up to 4 hrs by LC/MS/MS analysis; format: ADME, organism-based; design: dose 1.3 mg/kg, route oral; conditions: in vivo
[3] = molecular target: T1, Sodium/hydrogen exchanger 2 (Homo sapiens, UniProt Q9UBY0); assay: Inhibition of NHE-2 (unknown origin)
T1 sequence (Q9UBY0 whole entry): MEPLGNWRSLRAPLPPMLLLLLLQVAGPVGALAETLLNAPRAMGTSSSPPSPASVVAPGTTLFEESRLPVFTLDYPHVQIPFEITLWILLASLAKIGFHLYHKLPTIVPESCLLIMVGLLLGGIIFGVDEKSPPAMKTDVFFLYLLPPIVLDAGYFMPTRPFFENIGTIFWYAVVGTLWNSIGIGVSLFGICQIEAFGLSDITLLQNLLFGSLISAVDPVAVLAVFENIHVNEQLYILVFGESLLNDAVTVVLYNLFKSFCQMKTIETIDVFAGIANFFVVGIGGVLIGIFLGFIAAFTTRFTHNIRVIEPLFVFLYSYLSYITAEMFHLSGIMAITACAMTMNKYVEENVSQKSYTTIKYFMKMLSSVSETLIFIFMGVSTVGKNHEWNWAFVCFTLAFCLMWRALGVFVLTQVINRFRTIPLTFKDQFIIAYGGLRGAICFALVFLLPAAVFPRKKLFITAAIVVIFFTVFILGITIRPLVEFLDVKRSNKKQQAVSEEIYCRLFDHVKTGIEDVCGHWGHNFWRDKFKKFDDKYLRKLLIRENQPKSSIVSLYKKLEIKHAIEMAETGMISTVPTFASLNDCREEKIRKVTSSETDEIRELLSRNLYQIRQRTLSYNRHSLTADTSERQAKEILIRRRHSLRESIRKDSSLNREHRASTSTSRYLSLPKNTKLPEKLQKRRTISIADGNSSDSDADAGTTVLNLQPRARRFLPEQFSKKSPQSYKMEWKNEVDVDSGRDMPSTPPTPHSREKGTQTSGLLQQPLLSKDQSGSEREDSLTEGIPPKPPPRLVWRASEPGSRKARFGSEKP

[4] = molecular target: T2, Sodium/hydrogen exchanger 3 (Homo sapiens, UniProt P48764); assay: Inhibition of NHE-3 (unknown origin)
T2 sequence (P48764 whole entry): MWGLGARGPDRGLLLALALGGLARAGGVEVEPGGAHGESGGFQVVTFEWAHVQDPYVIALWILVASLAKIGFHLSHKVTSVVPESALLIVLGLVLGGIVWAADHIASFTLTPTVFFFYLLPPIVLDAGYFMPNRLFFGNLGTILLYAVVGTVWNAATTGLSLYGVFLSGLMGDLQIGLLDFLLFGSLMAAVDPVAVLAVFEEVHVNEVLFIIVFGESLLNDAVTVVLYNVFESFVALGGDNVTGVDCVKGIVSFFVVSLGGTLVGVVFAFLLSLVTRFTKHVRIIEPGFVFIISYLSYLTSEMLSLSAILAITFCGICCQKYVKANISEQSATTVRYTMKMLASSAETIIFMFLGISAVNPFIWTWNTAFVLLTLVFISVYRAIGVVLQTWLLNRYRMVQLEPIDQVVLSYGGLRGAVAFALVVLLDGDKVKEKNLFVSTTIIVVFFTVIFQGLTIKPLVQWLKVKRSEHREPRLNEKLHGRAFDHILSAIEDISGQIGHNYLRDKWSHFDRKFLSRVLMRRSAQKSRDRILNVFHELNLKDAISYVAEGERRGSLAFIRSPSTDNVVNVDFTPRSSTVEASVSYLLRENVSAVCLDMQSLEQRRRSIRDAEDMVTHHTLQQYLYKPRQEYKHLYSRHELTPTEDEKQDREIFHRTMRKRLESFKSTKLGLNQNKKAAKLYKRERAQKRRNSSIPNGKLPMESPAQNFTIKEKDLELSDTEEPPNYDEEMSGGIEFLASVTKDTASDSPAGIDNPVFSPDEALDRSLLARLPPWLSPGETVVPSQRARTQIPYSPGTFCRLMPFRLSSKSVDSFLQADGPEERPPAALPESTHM

[5] = molecular target: T3, Sodium/hydrogen exchanger 5 (Homo sapiens, UniProt Q14940); assay: Inhibition of NHE-5 (unknown origin)
T3 sequence (Q14940 whole entry): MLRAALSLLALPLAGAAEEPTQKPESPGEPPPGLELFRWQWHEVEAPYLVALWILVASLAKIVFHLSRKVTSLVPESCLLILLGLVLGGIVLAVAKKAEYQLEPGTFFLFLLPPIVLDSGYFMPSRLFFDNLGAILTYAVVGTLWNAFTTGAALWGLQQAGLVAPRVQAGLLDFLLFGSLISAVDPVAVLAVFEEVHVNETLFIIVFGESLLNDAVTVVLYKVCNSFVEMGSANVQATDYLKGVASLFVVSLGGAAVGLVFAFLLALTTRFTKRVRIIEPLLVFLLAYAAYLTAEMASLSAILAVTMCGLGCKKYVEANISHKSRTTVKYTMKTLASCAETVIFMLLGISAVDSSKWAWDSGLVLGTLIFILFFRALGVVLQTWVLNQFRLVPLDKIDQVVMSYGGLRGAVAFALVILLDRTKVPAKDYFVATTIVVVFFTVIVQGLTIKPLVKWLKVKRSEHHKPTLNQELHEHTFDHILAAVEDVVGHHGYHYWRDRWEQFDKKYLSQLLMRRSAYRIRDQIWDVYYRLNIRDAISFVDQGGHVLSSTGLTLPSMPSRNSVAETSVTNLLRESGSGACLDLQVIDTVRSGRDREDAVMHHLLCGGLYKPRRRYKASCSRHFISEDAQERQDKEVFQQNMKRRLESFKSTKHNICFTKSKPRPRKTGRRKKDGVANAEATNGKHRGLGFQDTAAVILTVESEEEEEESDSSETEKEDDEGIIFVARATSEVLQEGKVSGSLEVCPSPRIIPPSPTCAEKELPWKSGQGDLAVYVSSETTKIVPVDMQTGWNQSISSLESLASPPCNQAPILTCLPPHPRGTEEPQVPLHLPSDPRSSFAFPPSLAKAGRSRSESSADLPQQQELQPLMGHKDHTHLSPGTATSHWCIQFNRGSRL

[6] = molecular target: Sodium/hydrogen exchanger 1 (Homo sapiens, UniProt P19634); assay: Inhibition of NHE-1 (unknown origin)
[7] = Cmax in Sprague-Dawley rat at 1.6 mg/kg administered via oral gavage measured up to 4 hrs by LC/MS/MS analysis; format: ADME, organism-based; design: dose 1.6 mg/kg, route oral; conditions: in vivo
[8] = AUC in Sprague-Dawley rat at 1.6 mg/kg administered via oral gavage measured up to 4 hrs by LC/MS/MS analysis; format: ADME, organism-based; design: time < 4 hr, dose 1.6 mg/kg, route oral; conditions: in vivo
[9] = AUC in Sprague-Dawley rat at 2.2 mg/kg administered via oral gavage measured up to 4 hrs by LC/MS/MS analysis; format: ADME, organism-based; design: time < 4 hr, dose 2.2 mg/kg, route oral; conditions: in vivo
[10] = Cmax in Sprague-Dawley rat at 2.2 mg/kg administered via oral gavage measured up to 4 hrs by LC/MS/MS analysis; format: ADME, organism-based; design: dose 2.2 mg/kg, route oral; conditions: in vivo
Rattus norvegicus [11] = assay: Increase in fecal sodium level in Sprague-Dawley rat at 3 mg/kg administered via oral gavage measured after 16 hrs by ion chromatographic analysis; format: functional, organism-based
Rattus norvegicus [12] = assay: Increase in fecal water content in 1% psyllium diet fed Sprague-Dawley rat at 3 mg/kg administered via oral gavage measured after 16 hrs; format: functional, organism-based
Rattus norvegicus [13] = assay: Reduction in fecal stool form in 1% psyllium diet fed Sprague-Dawley rat at 3 mg/kg administered via oral gavage measured after 16 hrs; format: functional, organism-based
Rattus norvegicus [14] = assay: Decrease in urinary sodium level in 1% psyllium diet fed Sprague-Dawley rat at 3 mg/kg administered via oral gavage measured after 16 hrs by ion chromatographic analysis; format: functional, organism-based
Rattus norvegicus [15] = assay: Antinociceptive activity in Wistar rat assessed as inhibition of partial restraint stress-induced visceral hyperalgesia at 10 mg/kg, po administered 1 hr prior to 45 to 60 mm Hg colorectal distension pressure by measuring number of abdominal contractions monitoring every 5 mins during rectal distension; format: functional, organism-based; conditions: Abdominal cavity
Rattus norvegicus [16] = assay: Increase in fecal water content in Sprague-Dawley rat administered via oral gavage measured after 16 hrs; format: functional
Rattus norvegicus [17] = assay: Effect on fecal water content in Sprague-Dawley rat at 3 mg/kg administered via oral gavage measured after 16 hrs relative to control; format: functional
Rattus norvegicus [18] = assay: Decrease in urinary sodium level in Sprague-Dawley rat administered via oral gavage measured after 16 hrs by ion chromatographic analysis; format: functional
[19] = AUC in Sprague-Dawley rat at 28 mg/kg administered via oral gavage measured up to 4 hrs by LC/MS/MS analysis; format: ADME, organism-based; design: time < 4 hr, dose 28 mg/kg, route oral; conditions: in vivo
[20] = Cmax in Sprague-Dawley rat at 28 mg/kg administered via oral gavage measured up to 4 hrs by LC/MS/MS analysis; format: ADME, organism-based; design: dose 28 mg/kg, route oral; conditions: in vivo
[21] = Cmax in Sprague-Dawley rat at 2.4 mg/kg administered via oral gavage measured up to 4 hrs by LC/MS/MS analysis; format: ADME, organism-based; design: dose 2.4 mg/kg, route oral; conditions: in vivo

Sodium/hydrogen exchanger 1, sequence (P19634 whole entry): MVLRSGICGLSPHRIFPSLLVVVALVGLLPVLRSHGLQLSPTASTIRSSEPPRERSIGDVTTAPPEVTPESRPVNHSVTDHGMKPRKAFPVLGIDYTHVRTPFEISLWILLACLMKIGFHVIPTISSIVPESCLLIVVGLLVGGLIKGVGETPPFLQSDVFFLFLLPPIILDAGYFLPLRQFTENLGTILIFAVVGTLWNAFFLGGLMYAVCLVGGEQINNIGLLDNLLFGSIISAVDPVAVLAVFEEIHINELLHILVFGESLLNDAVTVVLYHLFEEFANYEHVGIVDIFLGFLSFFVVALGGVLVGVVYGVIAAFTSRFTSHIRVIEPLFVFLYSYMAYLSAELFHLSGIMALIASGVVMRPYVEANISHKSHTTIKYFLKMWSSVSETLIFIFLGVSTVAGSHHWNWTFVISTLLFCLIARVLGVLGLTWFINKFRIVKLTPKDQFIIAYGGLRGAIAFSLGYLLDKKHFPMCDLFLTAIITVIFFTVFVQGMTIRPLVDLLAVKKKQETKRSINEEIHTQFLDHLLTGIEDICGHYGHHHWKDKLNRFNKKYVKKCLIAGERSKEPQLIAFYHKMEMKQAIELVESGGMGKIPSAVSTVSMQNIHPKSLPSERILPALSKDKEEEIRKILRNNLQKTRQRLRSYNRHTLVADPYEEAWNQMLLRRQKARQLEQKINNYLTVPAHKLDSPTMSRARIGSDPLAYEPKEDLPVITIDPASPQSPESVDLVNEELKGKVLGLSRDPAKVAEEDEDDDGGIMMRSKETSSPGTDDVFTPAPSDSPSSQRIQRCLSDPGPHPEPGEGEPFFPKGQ

- AUC at 4 h [1]: 56 ng·h/mL
- Cmax [2]: 11 ng/mL
Structure (SMILES): CN1Cc2c(Cl)cc(Cl)cc2C(c2cccc(NS(=O)(=O)NCCP(=O)(O)O)c2)C1 (stereo unspecified)

- IC50 [3]: 4.3 to 62 µM
- IC50 [4]: 1 to 100 µM
- IC50 [5]: > 30 µM
- IC50 [6]: 0.03 to 3.4 µM
Structure (SMILES): CC(C)c1ccc(C(=O)NC(=N)N)cc1S(C)(=O)=O [CARIPORIDE]

- Cmax [7]: 71 ng/mL
- AUC at 4 h [8]: 159 ng·h/mL
Structure (SMILES): CN1Cc2c(Cl)cc(Cl)cc2C(c2cccc(S(=O)(=O)NCCN(CCNS(=O)(=O)c3cccc(C4CN(C)Cc5c(Cl)cc(Cl)cc54)c3)CCNS(=O)(=O)c3cccc(C4CN(C)Cc5c(Cl)cc(Cl)cc54)c3)c2)C1 (stereo unspecified)

- AUC at 4 h [9]: 23 ng·h/mL
- Cmax [10]: 9 ng/mL
Structure (SMILES): C/C(=C\c1cc(F)c(Oc2ccc(S(=O)(=O)NCCP(=O)(O)O)cc2)c(F)c1)C(=O)N=C(N)N

Structure (SMILES): CN1Cc2c(Cl)cc(Cl)cc2C(c2cccc(S(=O)(=O)NCCOCCOCCOCCNC(=O)C(O)C(O)C(=O)NCCOCCOCCOCCNS(=O)(=O)c3cccc(C4CN(C)Cc5c(Cl)cc(Cl)cc54)c3)c2)C1 (single isomer, unassigned)
- Activity (Rattus norvegicus [11]): Active
- Activity (Rattus norvegicus [12]): Active
- Activity (Rattus norvegicus [13]): Active
- Activity (Rattus norvegicus [14]): Active
- inhibition (Rattus norvegicus [15]): Active

Structure (SMILES): CN1Cc2c(Cl)cc(Cl)cc2C(c2cccc(S(=O)(=O)NCCOCCOCCOCCNC(=O)C(O)C(O)C(=O)NCCOCCOCCOCCNS(=O)(=O)c3cccc(C4CN(C)Cc5c(Cl)cc(Cl)cc54)c3)c2)C1 (stereo unspecified)
- Activity (Rattus norvegicus [16]): Dose-dependent effect

Structure (SMILES): CN1Cc2c(Cl)cc(Cl)cc2[C@H](c2cccc(S(=O)(=O)NCCOCCOCCOCCNC(=O)NCCCCNC(=O)NCCOCCOCCOCCNS(=O)(=O)c3cccc([C@@H]4CN(C)Cc5c(Cl)cc(Cl)cc54)c3)c2)C1 (single isomer, unassigned)
- Activity (Rattus norvegicus [17]): 118%
- Activity (Rattus norvegicus [18]): Dose-dependent effect

- IC50 [3]: 0.31 µM
- IC50 [4]: > 30 µM
- IC50 [6]: 35 µM
Structure (SMILES): Cc1ccc(F)cc1[C@H]1C/C(=N\N=C(N)N)c2c(C)cccc2C1

- AUC at 4 h [9]: 5 ng·h/mL
- Cmax [10]: 2.4 ng/mL
Structure (SMILES): CN1Cc2c(Cl)cc(Cl)cc2C(c2cccc(NC(=O)N[C@@H](CC(=O)O)C(=O)O)c2)C1 (stereo partly specified)

- AUC at 4 h [19]: 19 ng·h/mL
- Cmax [20]: 23 ng/mL
Structure (SMILES): CN1Cc2c(Cl)cc(Cl)cc2C(c2cccc(NCCOCCOCCOCCNC(=O)C(O)C(O)C(=O)NCCOCCOCCOCCNc3cccc(C4CN(C)Cc5c(Cl)cc(Cl)cc54)c3)c2)C1 (stereo unspecified)

- Cmax [21]: 2 ng/mL
Structure (SMILES): N=C(N)N1CCN(c2cccc(-c3nc(N=C(N)N)nc4ccc(Cl)cc34)c2)CC1
